Columns and labels:
Experiment in all cases: Post-emergence efficacy, glasshouse spray test
Type in all cases: in vivo
[1] = test system: Eleusine indica (ELEIN); conditions: Eleusine indica, post-emergence, 312 h, evaluated after 13 days, read-out: Control of weed species after post-emergence application, ELEIN (100=total damage to plant; 0=no damage to plant); for pest or weed control at 500 g/ha: Application Rate 500 g/Ha
Method in brief: (§1)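 14-d-old seedlings in standard soil; foliar spray; glasshouse 24/16° C, 14 h light, 65% RH, watered twice daily. 50 g/l stock in IF50/acetone, diluted with 0.25% or 1% Empicol ESC70 + 1% ammonium sulphate. Visual score 0–100 at 13 days.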

[2] = test system: Euphorbia heterophylla (EPHHL); conditions: Euphorbia heterophylla, post-emergence, 312 h, evaluated after 13 days, read-out: Control of weed species after post-emergence application, EPHHL (100=total damage to plant; 0=no damage to plant); for pest or weed control at 500 g/ha: Application Rate 500 g/Ha
Method in brief: as §1

[3] = test system: Echinochloa crus-galli (ECHCG); conditions: Echinochloa crus-galli, post-emergence, 312 h, evaluated after 13 days, read-out: Control of weed species after post-emergence application, ECHCG (100=total damage to plant; 0=no damage to plant); for pest or weed control at 500 g/ha: Application Rate 500 g/Ha
Method in brief: as §1

[4] = test system: Digitaria sanguinalis (DIGSA); conditions: Digitaria sanguinalis, post-emergence, 312 h, evaluated after 13 days, read-out: Control of weed species after post-emergence application, DIGSA (100=total damage to plant; 0=no damage to plant); for pest or weed control at 500 g/ha: Application Rate 500 g/Ha
Method in brief: as §1

[5] = test system: Lolium perenne (LOLPE); conditions: Lolium perenne, post-emergence, 312 h, evaluated after 13 days, read-out: Control of weed species after post-emergence application, LOLPE (100=total damage to plant; 0=no damage to plant); for pest or weed control at 500 g/ha: Application Rate 500 g/Ha
Method in brief: as §1

[6] = test system: Setaia fabei (SETFA); conditions: Setaria faberi, post-emergence, 312 h, evaluated after 13 days, read-out: Control of weed species after post-emergence application, SETFA (100=total damage to plant; 0=no damage to plant); for pest or weed control at 500 g/ha: Application Rate 500 g/Ha
Method in brief: as §1

[7] = test system: Chenopodium album (CHEAL); conditions: Chenopodium album, post-emergence, 312 h, evaluated after 13 days, read-out: Control of weed species after post-emergence application, CHEAL (100=total damage to plant; 0=no damage to plant); for pest or weed control at 500 g/ha: Application Rate 500 g/Ha
Method in brief: as §1

[8] = test system: Ipomoea hederacea (IPOHE); conditions: Ipomoea hederacea, post-emergence, 312 h, evaluated after 13 days, read-out: Control of weed species after post-emergence application, IPOHE (100=total damage to plant; 0=no damage to plant); for pest or weed control at 500 g/ha: Application Rate 500 g/Ha
Method in brief: as §1

[9] = test system: Amaranthus palmeri (AMAPA); conditions: Amaranthus palmeri, post-emergence, 312 h, evaluated after 13 days, read-out: Control of weed species after post-emergence application, AMAPA (100=total damage to plant; 0=no damage to plant); for pest or weed control at 500 g/ha: Application Rate 500 g/Ha
Method in brief: as §1

Row | Compound | pest or weed control at 500 g/ha [1] [%] | pest or weed control at 500 g/ha [2] [%] | pest or weed control at 500 g/ha [3] [%] | pest or weed control at 500 g/ha [4] [%] | pest or weed control at 500 g/ha [5] [%] | pest or weed control at 500 g/ha [6] [%] | pest or weed control at 500 g/ha [7] [%] | pest or weed control at 500 g/ha [8] [%] | pest or weed control at 500 g/ha [9] [%] | pest or weed control at 125 g/ha ([1]; Application Rate 125 g/Ha) [%] | pest or weed control at 125 g/ha ([2]; Application Rate 125 g/Ha) [%] | pest or weed control at 125 g/ha ([3]; Application Rate 125 g/Ha) [%] | pest or weed control at 125 g/ha ([4]; Application Rate 125 g/Ha) [%] | pest or weed control at 125 g/ha ([5]; Application Rate 125 g/Ha) [%] | pest or weed control at 125 g/ha ([6]; Application Rate 125 g/Ha) [%] | pest or weed control at 125 g/ha ([7]; Application Rate 125 g/Ha) [%] | pest or weed control at 125 g/ha ([8]; Application Rate 125 g/Ha) [%] | pest or weed control at 125 g/ha ([9]; Application Rate 125 g/Ha) [%]
1 | O=S(=O)([O-])CC[n+]1ccc(-c2cocn2)cn1 [Compound A22, 2-(4-oxazol-4-ylpyridazin-1-ium-1-yl)ethanesulfonate] | 20 | 30 | 20 | 20 | 10 | 20 | 20 | 10 | 30 | – | – | – | – | – | – | – | – | –
2 | CNC(=O)c1oc(-c2cc[n+](CCC(=O)OC)nc2)nc1C [Compound A137] | 30 | 20 | 40 | 50 | 10 | 30 | 10 | 10 | 20 | – | – | – | – | – | – | – | – | –
3 | O=S(=O)([O-])CCC[n+]1ccc(-c2nnco2)cn1 [Compound A7] | 20 | 20 | 10 | 30 | 10 | 10 | 0 | 10 | 0 | – | – | – | – | – | – | – | – | –
4 | Nc1nnc(-c2cc[n+](CCC(=O)O)nc2)s1 [Compound A47] | 100 | 100 | 90 | 90 | 100 | 90 | 100 | 30 | 100 | – | – | – | – | – | – | – | – | –
5 | Cn1cnnc1-c1cc[n+](CCS(=O)(=O)[O-])nc1 [Compound A50] | 70 | 100 | 100 | 100 | 80 | 100 | 100 | 70 | 100 | – | – | – | – | – | – | – | – | –
6 | CNc1nnc(-c2cc[n+](CCS(=O)(=O)[O-])nc2)s1 [Compound A45] | 70 | 90 | 40 | 50 | 70 | 70 | 80 | 20 | 100 | – | – | – | – | – | – | – | – | –
7 | O=S(=O)([O-])CC[n+]1ccc(-c2cscn2)cn1 [Compound A61] | 60 | 40 | 50 | 80 | 30 | 70 | 70 | 20 | 100 | – | – | – | – | – | – | – | – | –
8 | O=S(=O)([O-])CC[n+]1ccc(-c2nc(Cl)cs2)cn1 [Compound A25] | 40 | 80 | 30 | 40 | 20 | 40 | 70 | 40 | 80 | – | – | – | – | – | – | – | – | –
9 | Cc1csc(-c2cc[n+](CCS(=O)(=O)[O-])nc2)n1 [Compound A13] | 80 | 90 | 40 | 30 | 60 | 60 | 70 | 40 | 90 | – | – | – | – | – | – | – | – | –
10 | CNC(=O)c1oc(-c2cc[n+](CCC(=O)O)nc2)nc1C [Compound A129] | 90 | 90 | 60 | 70 | 60 | 100 | 70 | 80 | 100 | – | – | – | – | – | – | – | – | –
11 | O=S(=O)([O-])CCC[n+]1ccc(-c2ncco2)cn1 [Compound A3, 3-(4-oxazol-2-ylpyridazin-1-ium-1-yl)propane-1-sulfonate] | – | – | – | – | – | – | – | – | – | 50 | 70 | 70 | 80 | 20 | 80 | 60 | 40 | 20
12 | Nc1nnc(-c2cc[n+](CCS(=O)(=O)[O-])nc2)s1 [Compound A65] | 100 | 90 | 60 | 100 | 90 | 100 | 70 | 60 | 80 | – | – | – | – | – | – | – | – | –
13 | CC(C[n+]1ccc(-c2ncco2)cn1)NS(=O)(=O)[O-] (stereo not drawn) [Compound A89] | 70 | 100 | 60 | 90 | 60 | 60 | 90 | 30 | 100 | – | – | – | – | – | – | – | – | –
14 | Cn1cnc(-c2cc[n+](CCS(=O)(=O)[O-])nc2)n1 [Compound A39] | 80 | 90 | 80 | 90 | 70 | 90 | 90 | 80 | 90 | – | – | – | – | – | – | – | – | –
15 | Cn1ncc(-c2cc[n+](CCS(=O)(=O)[O-])nc2)n1 [Compound A6] | 60 | 20 | 60 | 60 | 60 | 70 | 40 | 10 | 90 | – | – | – | – | – | – | – | – | –
16 | O=S(=O)([O-])CC[n+]1ccc(-c2ncco2)cn1 [Compound A19] | 100 | 100 | 80 | 70 | 90 | 60 | 100 | 70 | 40 | – | – | – | – | – | – | – | – | –

Reference: patent US20210053957A1, “HERBICIDAL COMPOUNDS” (SYNGENTA PARTICIPATIONS AG, priority 2018, published 2021)
